Measured values taken from ChEMBL document CHEMBL5143608, “Peptide-based long-acting co-agonists of GLP-1 and cholecystokinin 1 receptors as novel anti-diabesity agents” (Eur J Med Chem, 2022).
Calls of active or inactive are those of the source.

Key:
[1] = Pancreatic insult activity in db/db mouse assessed as increase in lipase level in serum at 25 nmol/kg, sc administered every 2 days for 12 weeks; type: toxicity, organism-based; conditions: in vivo, 2016 h
[2] = Pancreatic insult activity in db/db mouse assessed as increase in amylase level in serum at 25 nmol/kg, sc administered every 2 days for 12 weeks; type: toxicity, organism-based; conditions: in vivo, 2016 h
Mus musculus [3] = assay: Anti-diabesity activity against db/db mouse assessed as reduction in HbA1c level at 25 nmol/kg, sc administered every 2 days and measured on day 43; type: functional, organism-based; conditions: time 43.0 day
Mus musculus [4] = assay: Anti-diabesity activity against db/db mouse assessed as reduction in HbA1c level at 25 nmol/kg, sc administered every 2 days for 6 weeks followed by saline treatment for 6 weeks and measured during first 6 weeks; type: functional, organism-based
Mus musculus [5] = assay: Anti-diabesity activity against db/db mouse assessed as increase in pancreas mass at 25 nmol/kg, sc administered every 2 days for 12 weeks; type: functional, organism-based
Mus musculus [6] = assay: Anti-diabesity activity against DIO C57BL/6 mouse assessed as reduction in fasted blood glucose level at 25 nmol/kg, sc administered every 2 days for 3 weeks; type: functional, organism-based; conditions: time 21.0 day
Mus musculus [7] = assay: Anti-diabesity activity against db/db mouse assessed as reduction in fasting blood glucose level at 25 nmol/kg, sc administered every 2 days for 6 weeks followed by saline treatment for 6 weeks and measured during first 6 weeks; type: functional, organism-based
Mus musculus [8] = assay: Insulinotropic activity in db/db mouse assessed as elevation of plasma insulin level at 25 nmol/kg, ip administered 30 min before oral glucose administration and measured upto 60 mins by ELISA; type: functional, organism-based; conditions: time <= 90.0 min
Mus musculus [9] = assay: Anti-diabesity activity against db/db mouse assessed as enhanced islets insulin content at 25 nmol/kg, sc administered every 2 days for 3 weeks by immunohistochemistry staining; type: functional, organism-based; conditions: time 21.0 day
Mus musculus [10] = assay: Anti-diabesity activity against DIO C57BL/6 mouse assessed as improvement in glucose tolerance at 25 nmol/kg, sc administered every 2 days for 3 weeks by OGTT; type: functional, organism-based; conditions: time 21.0 day
Mus musculus [11] = assay: Anti-diabesity activity against db/db mouse assessed as HbA1c level at 25 nmol/kg, sc administered every 2 days for 3 weeks; type: functional, organism-based; conditions: time 21.0 day
Mus musculus [12] = assay: Anti-diabesity activity against db/db mouse assessed as increase in insulin sensitivity by measuring reduction in plasma insulin level at 25 nmol/kg, sc administered every 2 days for 12 weeks by ELISA; type: functional, organism-based
Mus musculus [13] = assay: Anti-diabesity activity against db/db mouse assessed as improvement in glucose tolerance at 25 nmol/kg, sc administered every 2 days for 12 weeks by OGTT; type: functional, organism-based
Mus musculus [14] = assay: Hypoglycemic activity in db/db mouse assessed as reduction in glucose excursion at 25 nmol/kg, ip administered 30 min before oral glucose administration and measured upto 120 mins by OGTT; type: functional, organism-based
Mus musculus [15] = assay: Anti-diabesity activity against DIO C57BL/6 mouse assessed as reduction in triglycerides level in serum at 25 nmol/kg, sc administered every 2 days for 3 weeks; type: functional, organism-based; conditions: time 21.0 day
Mus musculus [16] = assay: Anti-diabesity activity against db/db mouse assessed as reduction in body weight at 25 nmol/kg, sc administered every 2 days for 3 weeks; type: functional, organism-based; conditions: time 21.0 day
Mus musculus [17] = assay: Hypoglycemic activity in db/db mouse assessed as improvement in glucose tolerance at 25 nmol/kg, ip administered 30 min before oral glucose administration and measured upto 120 mins by OGTT; type: functional, organism-based
Mus musculus [18] = assay: Anti-diabesity activity against db/db mouse assessed as reduction in fasting blood glucose level at 25 nmol/kg, sc administered every 2 days for 12 weeks; type: functional, organism-based
Mus musculus [19] = assay: Anti-diabesity activity against db/db mouse assessed as increase in islet area at 25 nmol/kg, sc administered every 2 days for 3 weeks by H and E staining based analysis; type: functional, organism-based; conditions: time 21.0 day
Mus musculus [20] = assay: Anti-diabesity activity against db/db mouse assessed as improvement in glucose tolerance at 25 nmol/kg, sc administered every 2 days for 3 weeks by OGTT; type: functional, organism-based; conditions: time 21.0 day
Mus musculus [21] = assay: Anti-diabesity activity against db/db mouse assessed as reduction in HbA1c level at 25 nmol/kg, sc administered every 2 days for 6 weeks followed by saline treatment for 6 weeks and measured during second 6 weeks; type: functional, organism-based
Mus musculus [22] = assay: Anti-diabesity activity against db/db mouse assessed as improvement in glucose tolerance level at 25 nmol/kg, sc administered every 2 days for 6 weeks followed by saline treatment for 6 weeks and measured during first 6 weeks by OGTT; type: functional, organism-based
Mus musculus [23] = assay: Anti-diabesity activity against DIO C57BL/6 mouse assessed as reduction in cholesterol level in serum at 25 nmol/kg, sc administered every 2 days for 3 weeks; type: functional, organism-based; conditions: time 21.0 day
Mus musculus [24] = assay: Anti-diabesity activity against db/db mouse assessed as increase in islet number at 25 nmol/kg, sc administered every 2 days for 3 weeks by H and E staining based analysis; type: functional, organism-based; conditions: time 21.0 day
Mus musculus [25] = assay: Anti-diabesity activity against db/db mouse assessed as reduction in fasting blood glucose level at 25 nmol/kg, sc administered every 2 days for 6 weeks followed by saline treatment for 6 weeks and measured during second 6 weeks; type: functional, organism-based
Mus musculus [26] = assay: Anti-diabesity activity against db/db mouse assessed as reduction in HbA1c level at 25 nmol/kg, sc administered every 2 days for 12 weeks; type: functional, organism-based
Mus musculus [27] = assay: Anti-diabesity activity against DIO C57BL/6 mouse assessed as reduction in cumulative food intake at 25 nmol/kg, sc administered every 2 days for 3 weeks; type: functional, organism-based; conditions: time 21.0 day
Mus musculus [28] = assay: Anti-diabesity activity in DIO C57BL/6 mouse assessed as improvement in insulin sensitivity at 25 nmol/kg, sc administered every 2 days for 10 days by insulin tolerance test; type: functional, organism-based; conditions: time 10.0 day
Mus musculus [29] = assay: Anti-diabesity activity against db/db mouse assessed as increase in IOD of insulin in pancreas at 25 nmol/kg, sc administered every 2 days for 12 weeks by immunohistochemistry; type: functional, organism-based
Mus musculus [30] = assay: Anti-diabesity activity against db/db mouse assessed as improvement in glucose tolerance level at 25 nmol/kg, sc administered every 2 days for 6 weeks followed by saline treatment for 6 weeks and measured during second 6 weeks by OGTT; type: functional, organism-based
Mus musculus [31] = assay: Anti-diabesity activity against db/db mouse assessed as reduction in fasted blood glucose level at 25 nmol/kg, sc administered every 2 days for 3 weeks; type: functional, organism-based; conditions: time 21.0 day
Mus musculus [32] = assay: Anti-diabesity activity against db/db mouse assessed as reduction in cumulative food intake at 25 nmol/kg, sc administered every 2 days for 3 weeks; type: functional, organism-based; conditions: time 21.0 day
Mus musculus [33] = assay: Anti-diabesity activity in DIO C57BL/6 mouse assessed as reduction in body weight at 10 nmol/kg, sc administered every 2 days for 10 days; type: functional; conditions: time 10.0 day
Mus musculus [34] = assay: Anti-diabesity activity against DIO C57BL/6 mouse assessed as decrease in fat mass at 25 nmol/kg, sc administered every 2 days for 3 weeks; type: functional, organism-based; conditions: time 21.0 day
BRIN-BD11 = assay: Insulinotropic activity in rat BRIN-BD11 cells assessed as increase in insulin secretion incubated for 20 mins by radioimmunoassay; type: functional, cell-based; conditions: DDE = dose-dependent effect
Mus musculus [35] = assay: Anti-diabesity activity in DIO C57BL/6 mouse assessed as reduction in body weight at 100 nmol/kg, sc administered every 2 days for 10 days; type: functional; conditions: time 10.0 day
Mus musculus [36] = assay: Anti-diabesity activity in DIO C57BL/6 mouse assessed as reduction in body weight at 25 nmol/kg, sc administered every 2 days for 10 days; type: functional; conditions: time 10.0 day
Mus musculus [37] = assay: Anti-diabesity activity against DIO C57BL/6 mouse assessed as reduction in body weight at 25 nmol/kg, sc administered every 2 days for 3 weeks; type: functional; conditions: time 21.0 day
Mus musculus [38] = assay: Anti-diabesity activity against high fat diet-induced DIO C57BL/6 mouse model assessed as decrease in body weight at 25 nmol/kg, sc administered for 2 weeks; type: functional; conditions: C57BL/6, 336 h, time 14 day

SEMAGLUTIDE [listing 1 of 2 here]
Toxic: Activity [1] | Activity [2]

SEMAGLUTIDE [listing 2 of 2 here]
14.9%: inhibition (Mus musculus [37])
17.3%: inhibition (Mus musculus [35])
active: Activity (Mus musculus [3]) | Activity (Mus musculus [4]) | Activity (Mus musculus [5]) | Activity (Mus musculus [6]) | Activity (Mus musculus [7]) | Activity (Mus musculus [8]) | Activity (Mus musculus [9]) | Activity (Mus musculus [10]) | Activity (Mus musculus [11]) | Activity (Mus musculus [12]) | Activity (Mus musculus [13]) | Activity (Mus musculus [14]) | Activity (Mus musculus [15]) | Activity (Mus musculus [16]) | Activity (Mus musculus [17]) | Activity (Mus musculus [18]) | Activity (Mus musculus [19]) | Activity (Mus musculus [20]) | Activity (Mus musculus [21]) | Activity (Mus musculus [22]) | Activity (Mus musculus [23]) | Activity (Mus musculus [24]) | Activity (Mus musculus [25]) | Activity (Mus musculus [26]) | Activity (Mus musculus [27]) | Activity (Mus musculus [28]) | Activity (Mus musculus [29]) | Activity (Mus musculus [30]) | Activity (Mus musculus [31]) | Activity (Mus musculus [32]) | Activity (Mus musculus [34]) | Activity (BRIN-BD11) Dde
12.5%: inhibition (Mus musculus [36])
8.2%: inhibition (Mus musculus [33])

CCCCCCCCCCCCCCCC(=O)N[C@@H](CCC(=O)NCCCC[C@H](NC(=O)[C@H](C)NC(=O)[C@H](C)NC(=O)[C@H](CCC(N)=O)NC(=O)CNC(=O)[C@H](CCC(=O)O)NC(=O)[C@H](CC(C)C)NC(=O)[C@H](Cc1ccc(O)cc1)NC(=O)[C@H](CO)NC(=O)[C@H](CO)NC(=O)[C@@H](NC(=O)[C@H](CC(=O)O)NC(=O)[C@H](CO)NC(=O)[C@@H](NC(=O)[C@H](Cc1ccccc1)NC(=O)[C@@H](NC(=O)CNC(=O)[C@H](CCC(=O)O)NC(=O)[C@H](C)NC(=O)[C@@H](N)Cc1cnc[nH]1)[C@@H](C)O)[C@@H](C)O)C(C)C)C(=O)N[C@@H](CCC(=O)O)C(=O)N[C@@H](Cc1ccccc1)C(=O)N[C@H](C(=O)N[C@@H](C)C(=O)N[C@@H](Cc1c[nH]c2ccccc12)C(=O)N[C@@H](CC(C)C)C(=O)N[C@H](C(=O)N[C@@H](CCCNC(=N)N)C(=O)NCC(=O)N[C@@H](CCCNC(=N)N)C(=O)NCC(=O)O)C(C)C)[C@@H](C)CC)C(=O)O [LIRAGLUTIDE]
9.8%: inhibition in vivo at 0.025 µmol/kg (Mus musculus [38])
